The text below walks through data of patent publication US9676714B2, “Sulfonylindole derivatives and method for preparing the same” (Daewoong Pharmaceutical Co., Ltd., priority 2013, dated 2017).

Assay [1] concerns basal gastric acid secretion. The assay is described as follows: Inhibitory effect on the basal gastric acid secretion in pylorus-ligated rats (Shay's rat model). It is filed as in vivo, Sprague Dawley (SD) rats. Particulars: 5 h, male SD rats, 3 mg/kg/2 ml into the duodenum, five hours after the ligation, total gastric acid secretion vs control group. The procedure:
3) Inhibitory Effect on the Basal Gastric Acid Secretion in Pylorus-Ligated Rats
Assays for determining inhibitory effect of the compounds of the present invention on the basal gastric acid secretion was performed according to Shay's rat model (Shay, H., et al., 1945, gastroenterology, 5, p. 43-61). Male Sprague Dawley (SD) rats with a body weight in the range of 180˜220 g were divided into test (n=5) and control groups (n=5), and fasted for 18 hours with free access to water. Under isoflurane anesthesia, the abdomens of the rats were incised and then the pylorus was ligated. After the ligation, the control groups were administered with only 10% ethanol, 20% polyethylene glycol (PEG) 400, and 10% aqueous Cremophor solution through the duodenum, and the other groups were administered with test compounds suspended in 10% ethanol, 20% PEG 400, and 10% aqueous Cremophor solution at a concentration of 3 mg/kg/2 ml into the duodenum. Five hours after the ligation, the experimental animals were euthanized and their stomach contents were collected. The thus obtained contents were centrifuged at 4,000×g for 10 minutes, and the supernatant was recovered to obtain gastric juice therefrom. The amount of the gastric juice and its pH were measured. The acidity of the gastric juice was determined by 0.1 N-NaOH volume (ueq/mL) for automatic titration of gastric acid to pH 7.0. The total acid output was obtained by multiplying the gastric acidity by the amount of gastric juice. Inhibition Activity (%) of Test Compounds=(total gastric acid secretion in control group−total gastric acid secretion in groups treated with test compounds)/total gastric acid secretion in control group×100

In assay [2] the target is T1, proton pump (H+/K+-ATPase) (Sus scrofa, UniProt P19156).
T1 construct: Gastric vesicles were prepared from hog stomach via centrifugal separation; from tissue; host or cells: hog stomach (gastric vesicles, method of Rabon et al. 1988)
T1 sequence (P19156 whole entry): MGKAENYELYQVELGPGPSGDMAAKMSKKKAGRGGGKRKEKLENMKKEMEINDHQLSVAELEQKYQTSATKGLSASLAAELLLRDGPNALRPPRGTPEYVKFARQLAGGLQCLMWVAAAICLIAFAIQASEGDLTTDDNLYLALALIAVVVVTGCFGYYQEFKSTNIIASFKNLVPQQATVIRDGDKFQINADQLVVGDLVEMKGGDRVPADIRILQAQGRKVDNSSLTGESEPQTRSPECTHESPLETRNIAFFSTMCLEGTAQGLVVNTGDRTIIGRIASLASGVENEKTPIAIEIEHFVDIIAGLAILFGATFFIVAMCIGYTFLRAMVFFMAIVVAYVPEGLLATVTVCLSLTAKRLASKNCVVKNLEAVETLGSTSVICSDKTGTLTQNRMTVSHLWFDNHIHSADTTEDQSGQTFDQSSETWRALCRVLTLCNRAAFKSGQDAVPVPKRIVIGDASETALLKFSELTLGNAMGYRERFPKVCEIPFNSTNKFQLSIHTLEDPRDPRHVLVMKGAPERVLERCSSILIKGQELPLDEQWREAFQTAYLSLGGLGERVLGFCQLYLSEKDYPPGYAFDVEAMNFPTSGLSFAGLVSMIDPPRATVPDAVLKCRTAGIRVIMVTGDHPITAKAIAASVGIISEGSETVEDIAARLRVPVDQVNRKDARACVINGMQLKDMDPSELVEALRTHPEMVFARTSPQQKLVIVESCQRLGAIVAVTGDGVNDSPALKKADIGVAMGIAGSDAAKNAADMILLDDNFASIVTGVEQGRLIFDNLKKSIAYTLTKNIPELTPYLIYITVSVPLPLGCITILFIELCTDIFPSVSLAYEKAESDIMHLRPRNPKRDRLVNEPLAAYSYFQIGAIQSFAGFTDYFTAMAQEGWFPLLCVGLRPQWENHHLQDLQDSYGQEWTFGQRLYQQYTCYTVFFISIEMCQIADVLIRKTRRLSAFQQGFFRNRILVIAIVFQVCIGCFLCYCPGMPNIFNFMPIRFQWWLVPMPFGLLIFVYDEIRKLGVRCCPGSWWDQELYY
T1 sequence (P18434 whole entry partner): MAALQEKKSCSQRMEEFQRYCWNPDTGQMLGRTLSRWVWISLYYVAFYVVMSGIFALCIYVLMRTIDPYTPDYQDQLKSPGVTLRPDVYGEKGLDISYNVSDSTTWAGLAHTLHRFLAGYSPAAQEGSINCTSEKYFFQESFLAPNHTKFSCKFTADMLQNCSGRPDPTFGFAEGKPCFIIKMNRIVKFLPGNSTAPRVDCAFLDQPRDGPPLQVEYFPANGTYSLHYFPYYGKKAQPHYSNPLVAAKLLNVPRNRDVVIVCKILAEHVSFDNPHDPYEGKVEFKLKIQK
The experiment in a line: Measurement of inhibitory effects on proton pump (H+/K+-ATPase) activities. The class given is biochemical. Particulars: hog gastric vesicles, K+-specific H+/K+-ATPase activity, Tris-HCl buffer pH 7.4, 37° C. for 40 minutes, malachite green Pi readout. The procedure, abridged: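 Hog gastric vesicles in 60 mmol/l Tris-HCl pH 7.4 with 0.5% DMSO were treated with compounds at room temperature; reaction was started with 10 μl of 10 mmol/l ATP stock. Released Pi was read at 570 nm, K+-specific activity taken as the ±K+ difference. IC50 from 4-parameter logistic fit.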

Structures can show the parent of a compound that is named as a salt.

The inhibition in vivo is the change of the read-out against control, counted positive when it falls. Lower therefore signals a weak effect. As a reminder, the IC50 is the concentration that inhibits the measured activity by half. Lower therefore signals greater potency. Turning to `CNCc1cn(S(=O)(=O)c2cccnc2)c2cc(Nc3ccc(C)c(F)c3F)ccc12` [Example 65, N-(2,3-difluoro-4-methylphenyl)-3-((methylamino)methyl)-1-(pyridin-3-ylsulfonyl)-1H-indol-6-amine hydrochloride], testing at 3 mg/kg in assay [1] gave an inhibition in vivo of 42%. The midpoint of inhibition in assay [2], the IC50, lay at 0.31 µM.
In the same order, the values of `CNCc1cn(S(=O)(=O)c2cccc(C(F)(F)F)c2)c2cc(N(C)c3ccc(OC)nc3Cl)ccc12` [Example 315, N-(2-chloro-6-methoxypyridin-3-yl)-N-methyl-3-((methylamino)methyl)-1-((3-(trifluoromethyl)phenyl)sulfonyl)-1H-indol-6-amine hydrochloride] are 45% and 2.95 µM.
